In ChEMBL document CHEMBL4118084, “Chemical Approaches to Intervening in Ubiquitin Specific Protease 7 (USP7) Function for Oncology and Immune Oncology Therapies” (J Med Chem, 2018):
pIC50: −log10 of the molar value.

Legend:
[1] = biological target: T1, Ubiquitin carboxyl-terminal hydrolase 7 (Homo sapiens, UniProt Q93009); experiment: Inhibition of full-length recombinant USP7 (unknown origin) expressed in Sf9 cells using Ub-EKL as substrate preincubated for 30 mins followed by substrate addition by fluorescence based assay
[2] = biological target: Ubiquitin carboxyl-terminal hydrolase 7 (Homo sapiens, UniProt Q93009, C223A); experiment: Inhibition of human full-length wild-type His-tagged catalytic USP7 […] expressed in baculovirus infected Sf9 cells using Ub-AMC as substrate preincubated for 30 mins followed by substrate addition measured after 1 hrs by fluorometric analysis
[3] = biological target: T1, Ubiquitin carboxyl-terminal hydrolase 7; experiment: Inhibition of USP7 (unknown origin) using human N-terminal GST-tagged UBA52 as substrate preincubated for 10 mins followed by substrate addition measured after 45 mins by coomassie brilliant blue staining-based SDS-PAGE analysis
[4] = biological target: T1, Ubiquitin carboxyl-terminal hydrolase 7; experiment: Inhibition of USP7 (unknown origin) using Ub-Rh110 as substrate by fluorescence based assay
[5] = biological target: T1, Ubiquitin carboxyl-terminal hydrolase 7; experiment: Inhibition of USP7 (unknown origin)
[6] = biological target: T1, Ubiquitin carboxyl-terminal hydrolase 7; experiment: Inhibition of human recombinant 6His-tagged USP7 using Ub-Rh110 as substrate preincubated for 30 mins followed by substrate addition measured after 180 mins by fluorometric analysis
[7] = Inhibition of mouse CD4+/CD25+ Treg cells-mediated suppression of CD3-stimulated T-effector cell proliferation after 72 hrs by CellTrace violet dye-based assay; assay type: functional
[8] = biological target: T1, Ubiquitin carboxyl-terminal hydrolase 7; experiment: Inhibition of USP7 in human SJSA cells assessed as increase in ubiquitinated MDM2 level after 20 hrs in presence of MG132 by MSD assay; assay type: cell-based
[9] = biological target: T1, Ubiquitin carboxyl-terminal hydrolase 7; experiment: Inhibition of full-length native C-terminal USP7 (unknown origin) using Ub-Rho110 as substrate after 1 hr by fluorescence assay
[10] = biological target: T2, Ubiquitin carboxyl-terminal hydrolase 2 (Homo sapiens, UniProt O75604); experiment: Inhibition of USP2 (unknown origin)
T2 sequence (O75604 whole entry): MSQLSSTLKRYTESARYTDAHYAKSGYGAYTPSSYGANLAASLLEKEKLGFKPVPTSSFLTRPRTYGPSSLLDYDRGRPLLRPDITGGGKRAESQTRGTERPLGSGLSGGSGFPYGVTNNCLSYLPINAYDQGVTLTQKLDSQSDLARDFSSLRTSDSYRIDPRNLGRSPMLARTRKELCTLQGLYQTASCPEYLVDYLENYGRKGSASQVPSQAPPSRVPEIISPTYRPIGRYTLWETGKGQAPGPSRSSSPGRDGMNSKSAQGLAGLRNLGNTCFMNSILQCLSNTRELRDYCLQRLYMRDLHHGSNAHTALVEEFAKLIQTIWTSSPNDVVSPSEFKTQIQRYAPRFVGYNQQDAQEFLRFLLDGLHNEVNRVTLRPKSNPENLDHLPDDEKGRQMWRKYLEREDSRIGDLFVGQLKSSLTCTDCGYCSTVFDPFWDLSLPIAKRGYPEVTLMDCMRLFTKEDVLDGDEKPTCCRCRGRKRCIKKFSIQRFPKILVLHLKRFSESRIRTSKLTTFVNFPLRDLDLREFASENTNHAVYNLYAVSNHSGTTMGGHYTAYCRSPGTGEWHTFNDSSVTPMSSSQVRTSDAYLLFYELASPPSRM

[11] = biological target: T1, Ubiquitin carboxyl-terminal hydrolase 7; experiment: Inhibition of full-length USP7 (unknown origin) using Ub-AMC as substrate preincubated for 20 mins followed by substrate addition measured after 50 mins
[12] = biological target: T3, Ubiquitin carboxyl-terminal hydrolase 47 (Homo sapiens, UniProt Q96K76); experiment: Inhibition of USP47 (unknown origin) using Ub-AMC as substrate preincubated for 20 mins followed by substrate addition measured after 50 mins
T3 sequence (Q96K76 whole entry): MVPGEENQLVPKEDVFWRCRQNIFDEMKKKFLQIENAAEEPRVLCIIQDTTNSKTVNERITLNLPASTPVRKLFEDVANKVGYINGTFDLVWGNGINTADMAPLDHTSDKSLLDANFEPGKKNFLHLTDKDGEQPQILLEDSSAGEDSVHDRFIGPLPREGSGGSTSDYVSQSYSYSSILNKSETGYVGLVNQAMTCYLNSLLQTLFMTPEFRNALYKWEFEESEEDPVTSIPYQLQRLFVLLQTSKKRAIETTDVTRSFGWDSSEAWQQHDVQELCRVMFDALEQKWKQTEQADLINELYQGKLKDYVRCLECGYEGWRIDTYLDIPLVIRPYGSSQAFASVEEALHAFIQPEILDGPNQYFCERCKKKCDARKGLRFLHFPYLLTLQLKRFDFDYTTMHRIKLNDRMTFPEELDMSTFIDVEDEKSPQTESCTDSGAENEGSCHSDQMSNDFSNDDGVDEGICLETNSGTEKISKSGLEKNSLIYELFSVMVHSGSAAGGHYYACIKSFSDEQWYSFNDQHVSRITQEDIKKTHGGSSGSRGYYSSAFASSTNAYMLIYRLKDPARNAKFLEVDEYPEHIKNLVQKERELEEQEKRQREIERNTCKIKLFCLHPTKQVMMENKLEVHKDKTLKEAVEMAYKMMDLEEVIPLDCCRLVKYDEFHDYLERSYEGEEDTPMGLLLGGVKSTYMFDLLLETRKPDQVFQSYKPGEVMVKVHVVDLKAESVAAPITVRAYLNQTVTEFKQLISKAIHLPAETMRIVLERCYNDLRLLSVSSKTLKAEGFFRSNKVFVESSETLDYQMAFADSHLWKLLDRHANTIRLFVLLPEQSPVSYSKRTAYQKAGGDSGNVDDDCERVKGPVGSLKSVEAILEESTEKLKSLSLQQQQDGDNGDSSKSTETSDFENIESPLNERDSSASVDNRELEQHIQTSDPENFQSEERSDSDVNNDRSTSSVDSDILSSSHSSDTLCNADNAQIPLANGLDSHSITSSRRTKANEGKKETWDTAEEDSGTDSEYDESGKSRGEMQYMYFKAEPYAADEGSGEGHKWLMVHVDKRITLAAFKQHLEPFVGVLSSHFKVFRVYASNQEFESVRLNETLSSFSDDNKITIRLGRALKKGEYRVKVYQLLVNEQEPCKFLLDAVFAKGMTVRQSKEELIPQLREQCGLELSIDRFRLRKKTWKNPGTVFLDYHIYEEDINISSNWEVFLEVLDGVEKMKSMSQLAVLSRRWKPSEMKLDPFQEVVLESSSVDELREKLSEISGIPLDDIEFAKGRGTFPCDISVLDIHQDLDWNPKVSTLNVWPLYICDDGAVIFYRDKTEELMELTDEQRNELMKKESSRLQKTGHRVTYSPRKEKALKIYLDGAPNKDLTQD

T1 sequence (Q93009 whole entry): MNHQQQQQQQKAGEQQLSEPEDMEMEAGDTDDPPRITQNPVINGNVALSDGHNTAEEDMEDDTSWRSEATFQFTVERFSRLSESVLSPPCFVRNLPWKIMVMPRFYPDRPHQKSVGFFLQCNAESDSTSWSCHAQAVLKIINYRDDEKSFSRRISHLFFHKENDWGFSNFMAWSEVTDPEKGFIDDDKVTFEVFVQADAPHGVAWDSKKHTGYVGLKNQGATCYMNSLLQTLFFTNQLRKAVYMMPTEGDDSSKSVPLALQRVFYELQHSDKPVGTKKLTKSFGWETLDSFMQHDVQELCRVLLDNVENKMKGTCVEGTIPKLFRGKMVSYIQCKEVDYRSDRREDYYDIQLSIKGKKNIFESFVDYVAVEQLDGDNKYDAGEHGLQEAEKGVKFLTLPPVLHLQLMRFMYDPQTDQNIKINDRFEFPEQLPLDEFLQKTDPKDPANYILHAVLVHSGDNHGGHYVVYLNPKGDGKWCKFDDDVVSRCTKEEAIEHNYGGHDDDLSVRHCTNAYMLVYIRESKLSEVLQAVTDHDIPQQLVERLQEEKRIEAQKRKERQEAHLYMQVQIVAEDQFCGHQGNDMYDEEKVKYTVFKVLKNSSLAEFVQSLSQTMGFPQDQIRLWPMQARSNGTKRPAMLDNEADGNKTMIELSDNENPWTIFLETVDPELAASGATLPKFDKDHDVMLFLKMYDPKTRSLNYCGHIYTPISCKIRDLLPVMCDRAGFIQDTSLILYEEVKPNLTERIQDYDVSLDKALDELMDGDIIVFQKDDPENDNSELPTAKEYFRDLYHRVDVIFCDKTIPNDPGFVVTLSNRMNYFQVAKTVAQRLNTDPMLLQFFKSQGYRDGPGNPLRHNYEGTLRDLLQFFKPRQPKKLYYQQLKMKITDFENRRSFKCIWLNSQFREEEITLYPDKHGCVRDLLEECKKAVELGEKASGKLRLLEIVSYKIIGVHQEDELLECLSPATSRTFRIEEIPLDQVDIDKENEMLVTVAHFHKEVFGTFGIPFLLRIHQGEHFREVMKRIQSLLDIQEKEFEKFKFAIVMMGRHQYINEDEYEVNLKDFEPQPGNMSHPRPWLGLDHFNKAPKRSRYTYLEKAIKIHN
Chain of Ubiquitin carboxyl-terminal hydrolase 7 (Homo sapiens, UniProt Q93009, C223A) (Q93009 whole entry C223A): as the sequence (Q93009 whole entry) above, with C223A counted along it

SMILES: CC(=O)c1cc([N+](=O)[O-])c(Sc2ccccc2)s1
- pIC50 [1]: < 4.30

SMILES: CN(CCCNC(=O)c1ccc2nc3c(c(Cl)c2c1)CCCC3)Cc1ccccc1
- pIC50 [2]: 4.55

SMILES: COC(=O)[C@]12CCC(C)(C)C[C@H]1[C@H]1C(=O)C=C3[C@@]4(C)CC(C#N)C(=O)C(C)(C)[C@@H]4CC[C@@]3(C)[C@]1(C)CC2 (some centres undefined)
- pIC50 [3]: 4.60

SMILES: CC(CC(=O)N1CCC(O)(C(C)n2cnc3c(cnn3C)c2=O)CC1)c1ccccc1 (centres undefined)
- pIC50 [4]: 6.00 to 6.70

SMILES: CC1=CS(=O)(=O)c2cc(NC(=O)c3cc([N+](=O)[O-])c(Sc4c(Cl)cncc4Cl)s3)ccc21
- pIC50 [5]: 6.77

SMILES: O=C(Nc1ccc2c(c1)S(=O)(=O)CC2)c1cc([N+](=O)[O-])c(Sc2c(Cl)cncc2Cl)s1
- pIC50 [5]: 6.89

SMILES: C[C@@]12CCCc3coc(c31)C(=O)c1cc3c(=O)c4c(c(=O)c3cc12)c1c(=O)c2cc3c(cc2c(=O)c1c1c(=O)c2cc5c(cc2c(=O)c41)[C@]1(C)CCCc2coc(c21)C5=O)[C@]1(C)CCCc2coc(c21)C3=O
- pIC50 [6]: 6.12

SMILES: COC(=O)/C=C/CNC(=O)c1cc([N+](=O)[O-])c(Sc2cccc(Cl)c2Cl)s1
- pIC50 [7]: 6.24

SMILES: CCCc1cc2c(=O)n(C(C)C3(O)CCN(C(=O)CC(C)c4ccccc4)CC3)cnc2s1 (centres undefined)
- pIC50 [4]: 6.00 to 6.52

SMILES: O=C(Nc1cccc(CN2CCCC2)c1)c1ccc2nc3c(c(Cl)c2c1)CCCC3
- pIC50 [5]: 5.09

SMILES: CC1CS(=O)(=O)c2cc(NC(=O)c3cc([N+](=O)[O-])c(Sc4c(Cl)cncc4Cl)s3)ccc21 (centres undefined)
- pIC50 [5]: 7.12

SMILES: CC(=O)c1cnc(Sc2c(Cl)cncc2Cl)s1
- pIC50 [5]: 4.65

SMILES: CC(CC(=O)N1CCC(O)(C(C)n2cnn3cccc3c2=O)CC1)c1ccccc1 (centres undefined)
- pIC50 [4]: 6.00 to 6.70

SMILES: CC(CC(=O)N1CCC(O)(C(C)n2cnc3cc[nH]c3c2=O)CC1)c1ccccc1 (centres undefined)
- pIC50 [4]: > 6.30

SMILES: C[C@@]12CCCc3coc(c31)C(=O)c1cc3c(cc12)C(=O)C=C(C1=CC(=O)c2cc4c(cc2C1=O)C(=O)c1occ2c1[C@@]4(C)CCC2)C3=O
- pIC50 [6]: 6.31

SMILES: CCc1c(-c2ccc3c(cnn3C)c2)cnc(N)c1-c1ccc(O)cc1
- pIC50 [8]: 5.70
- pIC50 [9]: < 4.20

SMILES: CN(C)CCCNC1CS(=O)(=O)c2cc(NC(=O)c3cc([N+](=O)[O-])c(Sc4c(Cl)cncc4Cl)s3)ccc21 (centres undefined)
- pIC50 [5]: 6.70

SMILES: CC(=O)Nc1ccc2c(=O)n(C(C)C3(O)CCN(C(=O)CC(C)c4ccccc4)CC3)cnc2c1 (centres undefined)
- pIC50 [4]: > 6.70

SMILES: O=C(Nc1ccc2c(c1)S(=O)(=O)C=C2)c1cc([N+](=O)[O-])c(Sc2c(Cl)cncc2Cl)s1
- pIC50 [5]: 7.00

SMILES: COC(=O)[C@]12CCC(C)(C)C[C@H]1[C@H]1C(=O)C=C3[C@@]4(C)C=C(C#N)C(=O)C(C)(C)[C@@H]4CC[C@@]3(C)[C@]1(C)CC2 [BARDOXOLONE METHYL]
- pIC50 [10]: 4.66

SMILES: C[C@H]1[C@H](C)CC[C@]2(C(=O)O)CC[C@]3(C)C(=CC[C@@H]4[C@@]5(C)CC[C@H](O)C(C)(C)[C@@H]5CC[C@]43C)[C@H]12 [URSOLIC ACID]
- pIC50 [11]: 5.15
- pIC50 [12]: 4.59

SMILES: C[C@@]12CCCc3coc(c31)C(=O)c1cc3c(cc12)C(=O)C=CC3=O [XESTOQUINONE]
- pIC50 [6]: 6.89
